Laboratory results: patent publication US20250281413A1, “PHARMACEUTICAL COMPOSITION” (Novartis AG, priority 2021, published 2025)
Converted amounts (≈) assume the structure as drawn.

Legend:
Format in all cases: physicochemical
[1] = Dissolution rate of capsules filled with granule particles (paddle 50 rpm); details: pH 3, 50 mg dose in 900 mL
Description: Variant P7 was selected as the optimized granule composition in terms of copovidone and SLS ratio, thus the amount to be sprayed on the inert substrate (carrier particle) allow a drug load of 20%, based on the total weight of the granule particle, in a reasonable processing time. The dissolution performance of the different variant of granule particle compositions was evaluated to ensure the dissolution profile was in a good range. The dissolution rate is measured by conventional method (paddle method according to Pharm. Eur. 2.9.3 “Dissolution Test for Solid Dosage Forms” or US Pharmacopeia <711> “Dissolution” or Japanese Pharmacopiea <6.10> “Dissolution Test), as it can be seen in FIG. 1 and FIG. 2, by adding the granule particles prepared as mentioned in Table 1 into capsules (e.g. hard gelatin capsule). […] Some of the tested capsules comprising the above mentioned granule particles, the disintegration and dispersion of the content was delayed, leading to a delayed dissolution rate (DR) profile at paddle 50 rpm. […]
In order to have a better understanding of the formulation/pH profile, the dissolution rate profiles of the formulations described in Table 2 and Table 3 were measured at pH 2, pH 3, pH 4.5 and pH 6.8. […]

[2] = Particle size of wet-media milled suspension by Photon Correlation Spectroscopy (PCS); details: Example 7
From the text: The following examples illustrate the invention and provide support for the disclosure of the present invention without limiting the scope of the invention. • Analytical Centrifugation (AC), e.g., LUMiSizer, LUM GmbH Germany, SEPView 6.1.2570.2022. Wet dispersion method using purified water solution for dilution of suspension to appropriate attenuation level with about 10 to 70% transmission of first measurement profile. The reported results for X10, X50, X90 are intensity weighted. • Photon Correlation Spectroscopy (PCS), e.g., Zetasizer Nano ZS, Malver Panalytical Ltd., UK, Version 7.3. Wet dispersion method using 0.1 mM NaCl solution (in purified water) for dilution of suspension to appropriate attenuation level with about 2 to 9 attenuator index. The reported results for Xmean are intensity weighted. In particular, the attenuator index is 5. Preferably, the measurement is carried at 25° C. […]

[3] = pH dependent solubility of Compound (A)

percent of dose dissolved at plateau [1]: 90%
particle size of the DS in wet media milled before dilution for spray granulation [2]: 123 nm
Biopharmaceutics classification system Class [3]: Class 2
solubility ([3]; pH 1.2, simulated gastric fluid): 3000 µg/mL (≈ 5910 µM)
solubility ([3]; pH 2, simulated gastric fluid): 300 µg/mL (≈ 591 µM)
solubility ([3]; pH 3, aqueous buffer): 3 µg/mL (≈ 5.91 µM)
SMILES: C=CC(=O)N(C)CCOc1c(N)ncnc1-c1cc(F)cc(NC(=O)c2ccc(C3CC3)cc2F)c1C [Compound (A), N-(3-(6-amino-5-(2-(N-methylacrylamido)ethoxy)pyrimidin-4-yl)-5-fluoro-2-methylphenyl)-4-cyclopropyl-2-fluorobenzamide]
